Source: patent US20190022167A1, “METHODS AND COMPOSITIONS FOR THE PREVENTION AND TREATMENT OF DUCHENNE MUSCULAR DYSTROPHY” (priority 2016, published 2019)
Where no end group is shown, it is not given here. [ ]: non-standard residue; d: D form.

What was measured:
[1] = test system: subjects at risk of having DMD; assay: Prevention of DMD in humans (Example 2); assay type: in vivo, human; conditions: for Effect of combination with one or more additional therapeutic agents: compared to peptides or additional agents alone, expected; for Onset of DMD: daily 1%, 5% or 10% solution, predicted
Description: Subjects at risk of having DMD receive daily administrations of 1%, 5% or 10% solution of aromatic-cationic peptide, such as 2′6′-Dmt-D-Arg-Phe-Lys-NH2, Phe-D-Arg-Phe-Lys-NH2, or D-Arg-2′6′-Dmt-Lys-Phe-NH2, or a pharmaceutically acceptable salt thereof, such as acetate, tartrate, hydrochloride salt, or trifluoroacetate salt, alone or in combination with one or more additional therapeutic agents for the treatment or prevention of DMD. Peptides and/or additional therapeutic agents selected from the group consisting of: corticosteroids, Oxandrolone, ACE inhibitors, P188 (Poloxamer 188), beta-blockers, diuretics, angiotensin receptor blockers (ARBs), idebenone, alendronate, calcium with vitamin D, albuterol, dantrolene, pentoxifylline, carnitine, Coenzyme Q10, creatine, fish oil, green tea extracts, Vitamin E, PTC-124 (PTC Therapeutics Inc., South Plainfield, N.J.), AVI-4658 phosphorodiamidate morpholino oligomer, azathioprine and cyclosporine, are administered orally, topically, systemically, intravenously, subcutaneously, intraperitoneally, or intramuscularly according to methods known in the art. Dosages of the one or more additional therapeutic agents will range between 0.1 mg/kg to 50 mg/kg. Subjects will be evaluated weekly for the presence and/or severity of signs and symptoms associated with DMD, including, but not limited to, e.g., progressive proximal weakness with onset in the legs and pelvis, hyperlordosis with wide-based gait, hypertrophy of weak muscles, pseudohypertrophy (enlargement of calf and deltoid muscles with fat and fibrotic tissue), reduced muscle contractility on electrical stimulation in advanced stages of the disease, delayed motor milestones, progressive inability to ambulate, heel cord contractures, paralysis, fatigue, skeletal deformities including scoliosis, muscle fiber deformities, cardiomyopathy, congestive heart failure or arrhythmia, muscular atrophy, and respiratory disorders.

[2] = test system: subjects suspected of having or diagnosed as having DMD; assay: Treatment of DMD in humans (Example 1); assay type: in vivo, human; conditions: for Effect of combination with one or more additional therapeutic agents: compared to peptides or additional agents alone, expected; for Severity of symptoms associated with DMD: daily 1%, 5% or 10% solution, predicted
Description: Subjects suspected of having or diagnosed as having DMD receive daily administrations of 1%, 5% or 10% solution of aromatic-cationic peptide, such as 2′6′-Dmt-D-Arg-Phe-Lys-NH2, Phe-D-Arg-Phe-Lys-NH2, or D-Arg-2′6′-Dmt-Lys-Phe-NH2, or a pharmaceutically acceptable salt thereof, such as acetate, tartrate, hydrochloride salt, or trifluoroacetate salt, alone or in combination with one or more additional therapeutic agents for the treatment or prevention of DMD. Peptides and/or additional therapeutic agents selected from the group consisting of: corticosteroids, Oxandrolone, ACE inhibitors, P188(Poloxamer 188), beta-blockers, diuretics, angiotensin receptor blockers (ARBs), idebenone, alendronate, calcium with vitamin D, albuterol, dantrolene, pentoxifylline, carnitine, Coenzyme Q10, creatine, fish oil, green tea extracts, Vitamin E, PTC-124 (PTC Therapeutics Inc., South Plainfield, N.J.), AVI-4658 phosphorodiamidate morpholino oligomer, azathioprine and cyclosporine, are administered orally, topically, systemically, intravenously, subcutaneously, intraperitoneally, or intramuscularly according to methods known in the art. Dosages of the one or more additional therapeutic agents will range between 0.1 mg/kg to 50 mg/kg. Subjects will be evaluated weekly for the presence and/or severity of signs and symptoms associated with DMD, including, but not limited to, e.g., progressive proximal weakness with onset in the legs and pelvis, hyperlordosis with wide-based gait, hypertrophy of weak muscles, pseudohypertrophy (enlargement of calf and deltoid muscles with fat and fibrotic tissue), reduced muscle contractility on electrical stimulation in advanced stages of the disease, delayed motor milestones, progressive inability to ambulate, heel cord contractures, paralysis, fatigue, skeletal deformities including scoliosis, muscle fiber deformities, cardiomyopathy, congestive heart failure or arrhythmia, muscular atrophy, and respiratory disorders. Treatments are maintained until such a time as one or more signs or symptoms of DMD are ameliorated or eliminated.

[3] = test system: several mammalian cell types; conditions: cited from earlier work
DBA/2J-mdx mice [4] = assay: Left ventricular mitochondrial respiration in permeabilized muscle fiber bundles (high-resolution respirometry, Oroboros Oxygraph) after 12 weeks of treatment; assay type: in vivo, mouse; conditions: 5 mg/kg daily subcutaneous for 12 weeks; for ADP, complex I-supported respiration: treated DMD mice
Method: (§1) Left ventricular mitochondrial H2O2 emission (measured by spectrofluorometry; Amplex UltraRed fluorophore) and respiration (measured by high-resolution respirometry; Oroboros Oxygraph) were assessed in permeabilized muscle fiber bundles (PmFB) from DBA/2J-mdx mice (DMD mice) that were about 4 weeks of age, DBA/2J wildtype mice (wt mice) that were about 4 weeks of age, DMD mice treated with daily subcutaneous injections of Phe-D-Arg-Phe-Lys-NH2 (5mg/kg) for 12 weeks (treated DMD mice), and DMD mice treated with daily subcutaneous injections of […] for 12 weeks (untreated DMD mice). H2O2 emission was measured in the presence of physiological ADP (25 μM). ADP is a suppressor of H2O2 emission during respiration and is affected by the phosphate-shuttling activity of mitochondrial creatine kinase (mtCK). The effect of mtCK was assessed by saturating creatine (Cr) in vitro.

DBA/2J-mdx mice [5] = assay: Left ventricular mitochondrial H2O2 emission in permeabilized muscle fiber bundles (spectrofluorometry, Amplex UltraRed) after 12 weeks of treatment; assay type: in vivo, mouse; conditions: 5 mg/kg daily subcutaneous for 12 weeks
Method: as §1

Substance	Effect of combination with one or more additional therapeutic agents [1]	Onset of DMD [1]	Effect of combination with one or more additional therapeutic agents [2]	Severity of symptoms associated with DMD [2]	Penetration of the plasma membrane [3]	Respiration, treated vs untreated DMD mice (DBA/2J-mdx mice [4]; +Cr or —Cr)	ADP, complex I-supported respiration (DBA/2J-mdx mice [4]; +Cr)	ADP, complex I-supported respiration (DBA/2J-mdx mice [4]; —Cr)	mtCK-dependent ADP suppression of H2O2 emission, treated vs untreated DMD mice (DBA/2J-mdx mice [5])	ADP-suppression of Complex I-supported H2O2, % of emission at 0 μM ADP/O2 consumed (DBA/2J-mdx mice [5]; +Cr, 25 μM ADP, treated DMD mice)	ADP-suppression of Complex I-supported H2O2, % of 0 μM ADP/O2 consumed (DBA/2J-mdx mice [5]; —Cr, 25 μM ADP, treated DMD mice)
2′6′-Dmt-D-Arg-Phe-Lys-NH2	synergistic effects	delayed onset of DMD, or prevention of onset of DMD	synergistic effects	reduced severity or elimination of symptoms associated with DMD	readily penetrates the plasma membrane of several mammalian cell types in an energy-independent manner	–	–	–	–	–	–
F[dR]FK-NH2	synergistic effects	delayed onset of DMD, or prevention of onset of DMD	synergistic effects	reduced severity or elimination of symptoms associated with DMD	–	did not change respiration	111.4+/−12.0 pmol•s^−1•mg wet wt^−1	59.6+/−7.4 pmol•s^−1•mg wet wt^−	improved	12+/−1%	40+/−11%
D-Arg-2′6′-Dmt-Lys-Phe-NH2	synergistic effects	delayed onset of DMD, or prevention of onset of DMD	synergistic effects	reduced severity or elimination of symptoms associated with DMD	–	–	–	–	–	–	–
